This test has as its target T1, human LXRβ (Homo sapiens, UniProt P55055).
T1 construct: expressed in transfected cells; host or cells: HEK293 cells (ATCC CRL-1573), transient transfection with pFA-hLXRβ/GAL4 and pUAS
T1 sequence (P55055 222-460 limits assumed): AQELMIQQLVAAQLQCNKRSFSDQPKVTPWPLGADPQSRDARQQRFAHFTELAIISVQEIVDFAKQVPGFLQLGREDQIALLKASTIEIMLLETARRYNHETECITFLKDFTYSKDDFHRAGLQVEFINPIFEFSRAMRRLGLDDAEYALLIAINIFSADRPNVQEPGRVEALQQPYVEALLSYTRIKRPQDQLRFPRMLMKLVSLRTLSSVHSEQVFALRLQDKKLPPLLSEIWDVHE
Briefly: Assay for Transcriptional Activity of LXRβ (GAL4-hLXRβ LBD luciferase reporter, transient transfection). In kind it is cell-based. As to conditions: HEK293 cells transfected with pFA-hLXRβ/GAL4 and pUAS, 24 hours; for Emax: fold value in comparison with the control (DMSO-treated group); for EC50: increase of transcriptional activity of LXRβ, average of three independent tests. An outline of the steps: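 HEK293 cells transiently co-transfected with GAL4-hLXRβ LBD and 5×GAL4-UAS luciferase reporter, treated 24 h at 37 °C with compounds over 9 points (0.01–50 μM, half-log). Luminescence read after lysis; EC50 from four-parameter fit, mean of three independent tests, with a known LXR agonist as positive control.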
In general terms: A reporter such as luciferase makes a cellular process visible.

Broadly, the EC50 is the concentration at which the effect is half-maximal. A higher EC50 goes with weaker potency. In turn, `CN(C)S(=O)(=O)N1CC=C(c2cccc(C3CC(C(O)(C(F)(F)F)C(F)(F)F)=NN3c3ccccc3Cl)c2)CC1` (stereo not drawn) [Example 240, 1-(2-chloro-phenyl)-5-[3-(1-dimethylsulfamoyl-1,2,3,6-tetrahydropyridin-4-yl)-phenyl]-3-[di-(trifluoromethyl)-hydroxy-methyl]-4,5-dihydro-1H-pyrazole] registered an Emax of 44 fold and a concentration giving a half-maximal response (EC50) of 0.157 µM.
As to `COc1ccc(-c2ccc(C3CC(C(O)(C(F)(F)F)C(F)(F)F)=NN3c3ccc(F)cc3F)cc2)cn1` (stereo not drawn) [Example 370, 1-(2,4-difluoro-phenyl)-5-(4-(6-methoxy-pyridin-3-yl)-phenyl)-3-[di-(trifluoromethyl)-hydroxy-methyl]-4,5-dihydro-1H-pyrazole], the Emax is recorded as 36 fold and the 50% effective concentration (EC50) is 0.821 µM.
Taken in the same sequence, the figures for `O=C(CC1CCCC1)N1CC=C(c2cccc(C3CC(C(O)(C(F)(F)F)C(F)(F)F)=NN3c3ccccc3Cl)c2)CC1` (stereo not drawn) [Example 232, 1-(2-chloro-phenyl)-5-{3-[1-(2-cyclopentyl-acetyl)-1,2,3,6-tetrahydropyridin-4-yl]-phenyl}-3-[di-(trifluoromethyl)-hydroxy-methyl]-4,5-dihydro-1H-pyrazole] were 77 fold and 0.07 µM.
Taken in the same sequence, the figures for `OC(C1=NN(c2ccccc2Cl)C(c2ccc(-c3ccoc3)cc2)C1)(C(F)(F)F)C(F)(F)F` (stereo not drawn) [Example 257, 1-(2-chloro-phenyl)-5-(4-furan-3-yl-phenyl)-3-[di-(trifluoromethyl)-hydroxy-methyl]-4,5-dihydro-1H-pyrazole] were 57 fold and 1.84 µM.
Turning to `CS(=O)(=O)c1ccc(-c2ccnc(C3CC(C(F)(F)C(F)(F)F)=NN3c3ccc(F)cc3F)c2)cc1` (stereo not drawn) [Example 174, 1-(2,4-difluoro-phenyl)-5-[4-(4-methanesulfonyl-phenyl)-pyridin-2-yl]-3-pentafluoroethyl-4,5-dihydro-1H-pyrazole], the Emax was determined as 119 fold and the half-maximal effective concentration (EC50) is 0.543 µM.
`CS(=O)(=O)c1cccc(-c2ccc(C3CC(C(F)(F)C(F)(F)F)=NN3c3ccc(F)cc3F)cc2)c1` (stereo not drawn) [Example 18, 1-(2,4-difluoro-phenyl)-5-(3′-methanesulfonyl-biphenyl-4-yl)-3-pentafluoroethyl-4,5-dihydro-1H-pyrazole] had an Emax of 103 fold and an EC50 of 0.692 µM.
On to `CS(=O)(=O)c1ccc(-c2ccc(C3CC(C(O)(C(F)(F)F)C(F)(F)F)=NN3c3ccccc3Cl)cc2F)cc1` (stereo not drawn) [Example 365, 1-(2-chloro-phenyl)-5-(2-fluoro-4′-methylsulfonyl-biphenyl-4-yl)-3-[di-(trifluoromethyl)-hydroxy-methyl]-4,5-dihydro-1H-pyrazole], for which the Emax worked out at 68 fold and a half-maximal response (EC50) required 0.283 µM.
`CS(=O)(=O)c1ccc(-c2cccc(C3CC(C(F)(F)C(F)(F)F)=NN3c3ccc(F)cc3F)c2)nc1` (stereo not drawn) [Example 81, 1-(2,4-difluoro-phenyl)-5-[3-(5-methanesulfonyl-pyridin-2-yl)-phenyl]-3-pentafluoroethyl-4,5-dihydro-1H-pyrazole] displayed an Emax of 78 fold and a concentration for a half-maximal effect (EC50) of 1.4 µM.
Taken in the same sequence, the figures for `Cc1cccc(-c2ccc(C3CC(C(O)(C(F)(F)F)C(F)(F)F)=NN3c3ccccc3Cl)cc2)n1` (stereo not drawn) [Example 276, 1-(2-chloro-phenyl)-5-[4-(6-methyl-pyridin-2-yl)-phenyl]-3-[di-(trifluoromethyl)-hydroxy-methyl]-4,5-dihydro-1H-pyrazole] were 87 fold and 1.24 µM.
Turning to `CC(C)(C)OC(=O)N1CC=C(c2ccc(C3CC(C(O)(C(F)(F)F)C(F)(F)F)=NN3c3ccc(F)cc3F)cc2)CC1` (stereo not drawn) [Example 398, 1-(2,4-difluoro-phenyl)-5-[4-(1-BOC-1,2,3,6-tetrahydropyridin-4-yl)-phenyl]-3-[di-(trifluoromethyl)-hydroxy-methyl]-4,5-dihydro-1H-pyrazole], the Emax was 12 fold and the response was half-maximal at 1.81 µM (EC50).
The compound `CSc1cccc(-c2ccnc(C3CC(C(F)(F)C(F)(F)F)=NN3c3ccc(F)cc3F)c2)c1` (stereo not drawn) [Example 172, 1-(2,4-difluoro-phenyl)-5-[4-(3-methylsulfanyl-phenyl)-pyridin-2-yl]-3-pentafluoroethyl-4,5-dihydro-1H-pyrazole] registered an Emax of 73 fold and an EC50 of 1.02 µM.
`CS(=O)(=O)c1cccc(-c2cccc(C3CC(C(F)(F)C(F)(F)F)=NN3c3ccccc3Cl)n2)c1` (stereo not drawn) [Example 157, 1-(2-chloro-phenyl)-5-[2-(3-methanesulfonyl-phenyl)-pyridin-6-yl]-3-pentafluoroethyl-4,5-dihydro-1H-pyrazole]: the Emax turned out to be 96 fold and the EC50 came out at 0.397 µM.
For the compound `O=S(=O)(C1CCCC1)N1CC=C(c2ccc(C3CC(C(O)(C(F)(F)F)C(F)(F)F)=NN3c3ccccc3Cl)cc2)CC1` (stereo not drawn) [Example 306, 1-(2-chloro-phenyl)-5-[4-(1-cyclopentanesulfonyl-1,2,3,6-tetrahydropyridin-4-yl)-phenyl]-3-[di-(trifluoromethyl)-hydroxy-methyl]-4,5-dihydro-1H-pyrazole], the Emax came out at 59 fold and the concentration giving a half-maximal response (EC50) was 1.25 µM.
Taken in the same sequence, the figures for `CS(=O)(=O)c1ccc(-c2cc(C3CC(C(F)(F)C(F)(F)F)=NN3c3ccc(F)cc3F)ccc2F)cc1` (stereo not drawn) [Example 129, 1-(2,4-difluoro-phenyl)-5-(6-fluoro-4′-methanesulfonyl-biphenyl-3-yl)-3-pentafluoroethyl-4,5-dihydro-1H-pyrazole] were 44 fold and 7.99 µM.
Taken in the same sequence, the figures for `COc1ccc(-c2ccc(C3CC(C(O)(C(F)(F)F)C(F)(F)F)=NN3c3ccccc3Cl)cc2F)cn1` (stereo not drawn) [Example 368, 1-(2-chloro-phenyl)-5-[3-fluoro-4-(6-methoxy-pyridin-3-yl)-phenyl]-3-[di-(trifluoromethyl)-hydroxy-methyl]-4,5-dihydro-1H-pyrazole] were 57 fold and 1.92 µM.
Take `CS(=O)(=O)N1CC=C(c2ccc(F)c(C3CC(C(F)(F)C(F)(F)F)=NN3c3ccc(F)cc3F)c2)CC1` (stereo not drawn) [Example 149, 1-(2,4-difluoro-phenyl)-5-[2-fluoro-5-(1-methanesulfonyl-1,2,3,6-tetrahydropyridin-4-yl)-phenyl]-3-pentafluoroethyl-4,5-dihydro-1H-pyrazole]: the Emax is on record as 124 fold and the EC50 was determined as 0.303 µM.
For the compound `CSc1ccc(-c2cccc(C3CC(C(F)(F)C(F)(F)F)=NN3c3ccc(F)cc3F)c2)cc1` (stereo not drawn) [Example 30, 1-(2,4-difluoro-phenyl)-5-(4′-methylsulfanyl-biphenyl-3-yl)-3-pentafluoroethyl-4,5-dihydro-1H-pyrazole], the Emax was found to be 66 fold and the EC50 came out at 8.57 µM.
The compound `CS(=O)(=O)N1CC=C(c2ccc(C3CC(C(O)(C(F)(F)F)C(F)(F)F)=NN3c3ccccc3Cl)cn2)CC1` (stereo not drawn) [Example 358, 1-(2-chloro-phenyl)-5-[6-(1-methanesulfonyl-1,2,3,6-tetrahydropyridin-4-yl)-pyridin-3-yl]-3-[di-(trifluoromethyl)-hydroxy-methyl]-4,5-dihydro-1H-pyrazole] registered an Emax of 90 fold and an EC50 of 0.719 µM.

The record behind these values is patent US9376420B2 (YUHAN CORPORATION, priority 2012, dated 2016).
